This passage reports GI50 and TGI results from PubChem BioAssay (NCI).

Holding throughout (experiment): DTP human tumour cell line panel, 48 h
The test system of assay [1] is SK-MEL-2 melanoma.
Assay [2] relates to K-562 leukemia.
For assay [3], the system named is MCF7 breast.
The test system of assay [4] is NCI-H226 lung.
In assay [5] the test system is SF-539 CNS.
Assay [6] relates to HOP-92 NSCLC.
Assay [7] concerns T-47D breast.

In general, GI50 refers to the concentration giving 50% growth inhibition. In general, TGI refers to the concentration giving total growth inhibition. The low end stands for more potent growth arrest, the high end for less potent growth arrest.

Structures are written as SMILES.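 Protocol summary: plate cells (96-well), add compound at 5 concentrations, incubate 48 h, interpolate endpoints linearly. GI50 is the concentration that inhibits growth by half. TGI: concentration producing complete growth inhibition.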

As to `Cn1cc(C2=C(c3cccc([N+](=O)[O-])c3)C(=O)NC2=O)c2ccccc21`, the GI50 was 5.24 µM in assay [1]; 4.85 µM in assay [2]; 3.17 µM in assay [3]; 4.62 µM in assay [4]; 6.1 µM in assay [5]; 4.22 µM in assay [6]. For the same compound, the GI50 in assay [7] is 6.32 µM. The concentration for total growth inhibition (TGI) in assay [1] was 17.2 µM; in assay [2], greater than 25 µM; in assay [3] it was greater than 25 µM; in assay [4], greater than 19.2 µM; in assay [5], greater than 25 µM; in assay [6] it was greater than 20.6 µM. Further, the TGI in assay [7] worked out at 19.4 µM.

On to `COc1cc(C(=O)/C=C/c2c(C)n([O-])c3ccc(Cl)cc3[n+]2=O)cc(OC)c1OC`, for which the GI50 in assay [1] was 17 µM; in assay [2] it was 3.09 µM; in assay [3], 3.37 µM; in assay [4], 32.6 µM; in assay [5] it was 11.2 µM; in assay [6], 4.47 µM. In addition, the GI50 in assay [7] is 3.18 µM. Also, the concentration for total growth inhibition (TGI) in assay [1] was 81.3 µM; in assay [2], greater than 100 µM; in assay [3], greater than 100 µM; in assay [4], greater than 100 µM; in assay [5] it was 27.4 µM; in assay [6], greater than 100 µM. The compound further registered a total growth inhibition concentration (TGI) in assay [7] of 27.9 µM.

With `c1ccc(-c2nc3ccccc3[nH]2)c(OCCCCCOc2ccccc2-c2nc3ccccc3[nH]2)c1`, the GI50 is 8.96 µM in assay [1]; 4.35 µM in assay [2]; 2.3 µM in assay [3]; 20 µM in assay [4]; 3.44 µM in assay [5]; 2.55 µM in assay [6]. In addition, in assay [7], the GI50 was 3.18 µM. The total growth inhibition concentration (TGI) is 24.6 µM in assay [1]; greater than 100 µM in assay [2]; 7.51 µM in assay [3]; 47.4 µM in assay [4]; 11.5 µM in assay [5]; 14.7 µM in assay [6]. In assay [7], this compound gave a TGI of 18.6 µM.

On to `COc1ccc(C2=NOC3=c4ccccc4=CSC3=C2c2ccccc2)cc1`, for which the GI50 in assay [1] was 75.3 µM; in assay [2], 51.2 µM; in assay [3] it was 24.2 µM; in assay [4] it was 20.2 µM; in assay [5], 13.3 µM; in assay [6], 23.6 µM. Also, the GI50 in assay [7] is 30.3 µM. Also, the total growth inhibition concentration (TGI) is greater than 100 µM in assay [1]; greater than 100 µM in assay [2]; 62.9 µM in assay [3]; 79.8 µM in assay [4]; 37.5 µM in assay [5]; 83.2 µM in assay [6]. Moreover, the TGI in assay [7] came to 73.9 µM.

In the case of `CCCCCCCC(=O)OC[n+]1cccc(-c2c(COC(=O)NC(C)C)c(COC(=O)NC(C)C)c3n2CCC3)c1`, the total growth inhibition concentration (TGI) in assay [1] is greater than 100 µM; in assay [2], greater than 100 µM; in assay [3], greater than 100 µM; in assay [4], greater than 100 µM; in assay [5] it was greater than 89.5 µM; in assay [6], greater than 100 µM. Further, the total growth inhibition concentration (TGI) in assay [7] was greater than 100 µM.

For the compound `COc1ccc(-c2nn(-c3cccc(Cl)c3)cc2-c2c(C#N)c(=O)n3[nH]c(-c4ccc(C)o4)nc3c2C#N)cc1`, the GI50 in assay [1] was 6.57 µM; in assay [2], 4.09 µM; in assay [3] it was 1.75 µM; in assay [4], 7.35 µM; in assay [5], 5.67 µM; in assay [6], 0.463 µM. Moreover, the GI50 in assay [7] is 2.77 µM. The total growth inhibition concentration (TGI) is 18.1 µM in assay [1]; greater than 50 µM in assay [2]; greater than 50 µM in assay [3]; greater than 50 µM in assay [4]; greater than 50 µM in assay [5]; 3.44 µM in assay [6]. In assay [7], the concentration for total growth inhibition (TGI) is 33.8 µM.

For the compound `O=[N+]([O-])/C(=C/C=C/c1ccccc1)c1ccccc1`, the GI50 in assay [1] was 1.67 µM; in assay [2], 1.7 µM; in assay [3], 1.48 µM; in assay [4], 6.07 µM; in assay [5], 1.86 µM; in assay [6], 1.54 µM. In assay [7], the GI50 is 2.07 µM. Moreover, the total growth inhibition concentration (TGI) was 3.93 µM in assay [1]; 5 µM in assay [2]; 4.23 µM in assay [3]; 12.4 µM in assay [4]; 3.61 µM in assay [5]; 3.8 µM in assay [6]. Besides, in assay [7], the total growth inhibition concentration (TGI) turned out to be 5.28 µM.

In the case of `CC(C)OC(=O)c1cc(NC(=S)OC(C)C)ccc1Cl`, the TGI in assay [1] is 51.6 µM; in assay [2], greater than 100 µM; in assay [3] it was greater than 53 µM; in assay [4], 37.6 µM; in assay [5], 30.5 µM; in assay [6], 46.4 µM. The compound further registered a concentration for total growth inhibition (TGI) in assay [7] greater than 57.6 µM.

In the case of `COc1ccc2c(c1)CCC1C2CCC2(C)C(NC(=O)CCCCC3CCSS3)CCC12` (stereo not drawn), the GI50 in assay [1] is 53.5 µM; in assay [2], 5.81 µM; in assay [3], 39.7 µM; in assay [4], greater than 100 µM; in assay [5], greater than 100 µM; in assay [6], 4.16 µM. Moreover, the GI50 in assay [7] was 3.56 µM. Besides, the TGI in assay [1] is greater than 100 µM; in assay [2], greater than 100 µM; in assay [3] it was greater than 100 µM; in assay [4], greater than 100 µM; in assay [5], greater than 100 µM; in assay [6], 63.4 µM. This compound also returned a TGI in assay [7] greater than 100 µM.

On to `O=C(Cc1csc2nc(-c3ccc(Br)cc3)cn12)N/N=C/c1ccccc1O`, for which the GI50 was 21.1 µM in assay [1]; 0.0372 µM in assay [2]; 13.2 µM in assay [3]; 1.93 µM in assay [4]; 3.55 µM in assay [5]; 2.1 µM in assay [6]. In assay [7], the GI50 was 5.22 µM. Further, the TGI in assay [1] is 53.8 µM; in assay [2] it was 2.95 µM; in assay [3], greater than 100 µM; in assay [4], 7.84 µM; in assay [5] it was 11.8 µM; in assay [6] it was 14.6 µM. The same compound returned a concentration for total growth inhibition (TGI) in assay [7] of 23.2 µM.

Regarding `C#CCN(CCCOc1ccc(Cl)cc1Cl)CCCSC(=O)CCCCCN1/C(=C\C=C2/CCCC(/C=C/C3=[N+](CCCCCC(=O)[O-])c4ccccc4C3(C)C)=C2Cl)C(C)(C)c2ccccc21`, the GI50 in assay [1] is 1.77 µM; in assay [2], 0.667 µM; in assay [3] it was 1.24 µM; in assay [4] it was 1.72 µM; in assay [5], 1.2 µM; in assay [6], 1.57 µM. The GI50 in assay [7] is 0.768 µM. Also, the concentration for total growth inhibition (TGI) is 4.2 µM in assay [1]; greater than 100 µM in assay [2]; 3.53 µM in assay [3]; 4.11 µM in assay [4]; 2.71 µM in assay [5]; 3.53 µM in assay [6]. The TGI in assay [7] was determined as 3.21 µM.

In the case of `OCCN1CCCN(CCCN2c3ccccc3Sc3ccc(C(F)(F)F)cc32)CC1`, the GI50 in assay [1] was 2.07 µM; in assay [2] it was 1.57 µM; in assay [3] it was 1.6 µM; in assay [4] it was 15.1 µM; in assay [5], 1.67 µM; in assay [6] it was 1.73 µM. Further, in assay [7], the GI50 is 2.21 µM. Also, the total growth inhibition concentration (TGI) in assay [1] amounted to 4.08 µM; in assay [2], 3.23 µM; in assay [3], 3.14 µM; in assay [4], 39.1 µM; in assay [5], 3.12 µM; in assay [6], 7.63 µM. This compound also came in with a TGI in assay [7] of 5.39 µM.

In the case of `CN(Cc1cnc2nc(N)nc(N)c2n1)c1c(Cl)cc(C(=O)NC(CCC(=O)O)C(=O)O)cc1Br` (stereo not drawn), the GI50 is less than 0.01 µM in assay [1]; less than 0.01 µM in assay [2]; less than 0.01 µM in assay [3]; 0.0237 µM in assay [4]; less than 0.01 µM in assay [5]; greater than 100 µM in assay [6]. Moreover, the concentration for 50% growth inhibition (GI50) in assay [7] is 0.261 µM. Also, the TGI in assay [1], in assay [2], in assay [3], in assay [4], in assay [5] and in assay [6] was greater than 100 µM throughout. The TGI in assay [7] is greater than 100 µM.

In the case of `N#CC(C#N)=C/C=C/c1ccccc1[N+](=O)[O-]`, the total growth inhibition concentration (TGI) in assay [1], in assay [2], in assay [3], in assay [4], in assay [5] and in assay [6] was greater than 10 µM each time. This compound displayed a TGI in assay [7] greater than 10 µM.

Regarding `Cc1nc2sc(C(=O)Nc3cccc(Cl)c3)c(N)c2cc1C(O)c1ccccc1` (stereo not drawn), the GI50 in assay [1] is 2.43 µM; in assay [2], 0.488 µM; in assay [3], 0.373 µM; in assay [4], 3.53 µM; in assay [5], 0.546 µM; in assay [6] it was 10.4 µM. For the same compound, the GI50 in assay [7] was 0.997 µM. The TGI was 26.5 µM in assay [1]; greater than 100 µM in assay [2]; 16.9 µM in assay [3]; 26.6 µM in assay [4]; 7.25 µM in assay [5]; 31.3 µM in assay [6]. In assay [7], this compound gave a concentration for total growth inhibition (TGI) of 33 µM.

Turning to `CN1CCC(C(=O)Nc2n[nH]c3nnc(-c4ccccc4)cc23)CC1`, the GI50 in assay [1] is greater than 20.1 µM; in assay [2], greater than 25 µM; in assay [3], 10.2 µM; in assay [4], greater than 22.3 µM; in assay [5], 11.7 µM; in assay [6], 11.3 µM. The GI50 in assay [7] is greater than 25 µM. The TGI in assay [1], in assay [2], in assay [3], in assay [4], in assay [5] and in assay [6] was greater than 25 µM throughout. Further, the TGI in assay [7] was greater than 25 µM.
